Measured values from US20070027178A1, “Substituted tetrahydro-1H-pyrido[4,3-b]indoles as serotonin receptors agonists and antagonists” (Bristol-Myers Squibb Company, priority 2005, published 2007).

melting point [°C]	Compound
338 to 342	Cc1cc(C(F)(F)F)c2[nH]c3c(c2c1)CNCC3.Cl
140 to 144	COc1cc(C(F)(F)F)c2[nH]c3c(c2c1)CNCC3 [Example 23, 8-Methoxy-6-(trifluoromethyl)-2,3,4,5-tetrahydro-1H-pyrido [4,3-b]indole]
